Measured values taken from patent US6727265B2, “Phenoxyethyl-thiourea-pyridine compounds and their use for treatment of HIV-infections” (Parker Hughes Institute, priority 2000, dated 2004).
Like-named read-outs stand apart in the source and are kept apart here.

What was measured:
[1] = target: purified recombinant HIV RT (Human immunodeficiency virus type 1 group M subtype B, UniProt P03366); assay: biochemical
HIV-1 strain HTLVIIIB = assay: anti-HIV activity: inhibition of replication of HIV-1 strain HTLVIIIB in PBMC; format: cell-based; settings: for inhibition at 1 µM: at concentrations ≧1 μM; for IC50: read-out: IC50 [HTLVHIB]
cytotoxicity (CC50) = format: cell-based; settings: CC50 values
[2] = Human immunodeficiency virus 1, PBMC
[3] = Human immunodeficiency virus 1, peripheral blood mononuclear cells (PBMC) from healthy volunteer donors

SMILES | IC50 [1] | inhibition at 1 µM (HIV-1 strain HTLVIIIB; [2]) | IC50 (HIV-1 strain HTLVIIIB; [3]) | CC (cytotoxicity (CC50)) | melting point | IC50 (HIV-1 strain HTLVIIIB; [2])
S=C(NCCOc1ccccc1)Nc1ccccn1 [II, N-[2-(Phenoxy)ethyl]-N′-[2-(pyridyl)]thiourea] | 10100 nM | 100% | 5 nM | 55 µM | – | –
S=C(NCCOc1ccccc1)Nc1ccc(Br)cn1 [IV, N-[2-(Phenoxy)ethyl]-N′-[2-(5-bromopyridyl)]thiourea] | 1500 nM | 100% | 5 nM | 92 µM | 162 to 163 °C | –
S=C(NCCc1ccc(Cl)cc1)Nc1ccc(Br)cn1 [V, reference compound] | 2500 nM | – | – | – | – | –
Oc1ccc(CCNC(=S)Nc2ccc(Br)cn2)cc1 [VII, reference compound] | 87700 nM | – | – | >100 µM | – | 3070 nM
S=C(NCCOc1ccccc1)Nc1ccc(Cl)cn1 [III, N -[2-(Phenoxy)ethyl]-N′-[2-(5-chloropyridyl)]thiourea] | 1500 nM | 100% | 4 nM | >100 µM | – | –
